Consider eight compounds from patent US11912699B2, “Tau-protein targeting compounds and associated” (Arvinas Operations, Inc., priority 2019, dated 2024).

This assay concerns the target T1, Tau P301L (Homo sapiens, UniProt P10636, P618L).
T1 construct: expressed in transfected cells
Description: In vitro tau degradation assay in CHOK1 Tau P301L cells (sarkosyl insoluble tau, WES). It counts as cell-based. The note with it: CHO-K1, relative to DMSO doxycycline control, read-out: Tau Protein Degradation effect at 1 μM. The method, boiled down:
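T-Rex CHOK1 clone D1 with doxycycline-inducible (1 μg/ml) Tau P301L treated 48 h with compound at 1 μM, doxycycline removed for the final 24 h. Sarkosyl-insoluble tau quantified by WES capillary electrophoresis with Tau1 antibody, expressed relative to DMSO doxycycline control and binned as ≤50% or >50% remaining.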

The mark [1] stands for this setting: CHOK1 Tau P301L cells, remaining tau in sarkosyl insoluble pellet, 48 hours with test compound at 1 μM, doxycycline removed for last 24 hours.
The mark [2] stands for this setting: remaining tau protein in sarkosyl insoluble pellet, CHOK1 Tau P301L cells treated 48 hours with test compound at 1 μM, doxycycline removed for the last 24 hours.

Molecules are shown by their SMILES. Where two headings read alike, the source gives them in different places. Bounds are passed on as bounds.

T1 sequence (P10636 1-441 isoform P10636-8 P301L): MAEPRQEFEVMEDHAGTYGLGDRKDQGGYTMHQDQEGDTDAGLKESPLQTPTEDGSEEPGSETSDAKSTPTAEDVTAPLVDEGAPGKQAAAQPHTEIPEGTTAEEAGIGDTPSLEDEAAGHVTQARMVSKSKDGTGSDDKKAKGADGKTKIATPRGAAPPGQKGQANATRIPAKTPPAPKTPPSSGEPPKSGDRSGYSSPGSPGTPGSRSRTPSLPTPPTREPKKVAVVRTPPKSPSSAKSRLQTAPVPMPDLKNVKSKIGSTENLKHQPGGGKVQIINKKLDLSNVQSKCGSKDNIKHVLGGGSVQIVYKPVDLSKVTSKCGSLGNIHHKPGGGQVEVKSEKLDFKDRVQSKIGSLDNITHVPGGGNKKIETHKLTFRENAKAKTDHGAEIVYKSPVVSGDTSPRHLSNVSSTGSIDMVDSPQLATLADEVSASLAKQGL

Turning to `O=C1CCC(N2C(=O)c3cc(F)c(OCCN4CC5(C4)CN(C[C@H]4C[C@H](Oc6ncc(-c7ccc8c9cnccc9n(C(F)F)c8c7)cc6F)C4)C5)cc3C2=O)C(=O)N1` (some centres unmarked) [Compound 646, 5-(2-(6-(((1r,3r)-3-((5-(5-(difluoromethyl)-5H-pyrido[4,3-b]indol-7-yl)-3-fluoropyridin-2-yl)oxy)cyclobutyl)methyl)-2,6-diazaspiro[3.3]heptan-2-yl)ethoxy)-2-(2,6-dioxopiperidin-3-yl)-6-fluoroisoindoline-1,3-dione], the remaining activity at 1 µM under setting [1] was under 50%.
As for `CN1CCc2[nH]c3cc(-c4cnc(N5CCC(CCN6CCN(c7cc8c(cc7F)C(=O)N(C7CCC(=O)NC7=O)C8=O)CC6)CC5)c(F)c4)ccc3c2C1` (centres unmarked) [Compound 647, 2-(2,6-dioxopiperidin-3-yl)-5-fluoro-6-(4-(2-(1-(3-fluoro-5-(2-methyl-2,3,4,5-tetrahydro-1H-pyrido[4,3-b]indol-7-yl)pyridin-2-yl)piperidin-4-yl)ethyl)piperazin-1-yl)isoindoline-1,3-dione], under setting [1], the remaining activity at 1 µM is over 50%.
As to `O=C1CCC(N2C(=O)c3ccc(N4CCN(CCC5CCN(c6ncc(-c7ccc8c9cncc(F)c9n(C(F)F)c8c7)cc6F)CC5)CC4)cc3C2=O)C(=O)N1` (centres unmarked) [Compound 652, 5-(4-(2-(1-(5-(5-(difluoromethyl)-4-fluoro-5H-pyrido[4,3-b]indol-7-yl)-3-fluoropyridin-2-yl)piperidin-4-yl)ethyl)piperazin-1-yl)-2-(2,6-dioxopiperidin-3-yl)isoindoline-1,3-dione], the remaining activity at 1 µM under setting [2] was under 50%.
`CN(C)c1cccc2cnc(-n3ccc4cc(N5CCC(CCN6CCN(c7cc8c(cc7F)C(=O)N(C7CCC(=O)NC7=O)C8=O)CC6)CC5)ncc43)cc12` (centres unmarked) [Compound 653, 5-(4-(2-(1-(1-(5-(dimethylamino)isoquinolin-3-yl)-1H-pyrrolo[2,3-c]pyridin-5-yl)piperidin-4-yl)ethyl)piperazin-1-yl)-2-(2,6-dioxopiperidin-3-yl)-6-fluoroisoindoline-1,3-dione]: the remaining activity at 1 µM under setting [2] is under 50%.
On the same count and under the same terms, as for `O=C1CCC(N2C(=O)c3ccc(N4CCN(CCC5CCN(c6ccnc(Nc7ccc8ncccc8n7)c6)CC5)CC4)cc3C2=O)C(=O)N1` (centres unmarked) [Compound 656, 5-(4-(2-(1-(2-((1,5-naphthyridin-2-yl)amino)pyridin-4-yl)piperidin-4-yl)ethyl)piperazin-1-yl)-2-(2,6-dioxopiperidin-3-yl)isoindoline-1,3-dione], the figure is under 50%; as for `O=C1CCC(N2C(=O)c3ccc(N4CCN(CC5CCN(C[C@H]6C[C@H](Oc7ncc(-c8ccc9c%10cnccc%10n(C(F)F)c9c8)cc7F)C6)CC5)CC4)cc3C2=O)C(=O)N1` (some centres unmarked) [Compound 667, 5-(4-((1-(((1r,3r)-3-((5-(5-(difluoromehtyl)-5H-pyrido[4,3-b]indol-7-yl)-3-fluoropyridin-2-yl)oxy)cyclobutyl)methyl)piperidin-4-yl)methyl)piperazin-1-yl)-2-(2,6-dioxopiperidin-3-yl) isoindoline-1,3-dione], under 50%; as for `O=C1CCC(N2C(=O)c3ccc(N4CCN(CCC5CCN(c6ncc(-c7ccc8c9cnccc9n(CC(F)(F)F)c8n7)cc6F)CC5)CC4)cc3C2=O)C(=O)N1` (centres unmarked) [Compound 673, 2-(2,6-dioxopiperidin-3-yl)-5-(4-(2-(1-(3-fluoro-5-(9-(2,2,2-trifluoroethyl)-9H-pyrrolo[2,3-b:4,5-c′]dipyridin-2-yl)pyridin-2-yl)piperidin-4-yl)ethyl)piperazin-1-yl)isoindoline-1,3-dione], under 50%.
Regarding `O=C1CCC(N2C(=O)c3ccc(N4CCN(CCC5CCN(c6ncc(-c7ccc8c9cnccc9n(C(F)F)c8n7)cc6F)CC5)CC4)cc3C2=O)C(=O)N1` (centres unmarked) [Compound 674, 5-(4-(2-(1-(5-(9-(difluoromethyl)-9H-pyrrolo[2,3-b:4,5-c′]dipyridin-2-yl)-3-fluoropyridin-2-yl)piperidin-4-yl)ethyl)piperazin-1-yl)-2-(2,6-dioxopiperidin-3-yl)isoindoline-1,3-dione], under setting [2], the remaining activity at 1 µM is under 50%.
